Laboratory results: patent US11565998B2, “Succinate prodrug, compositions containing the succinate prodrug and uses thereof” (ABLIVA AB, priority 2019, dated 2023)
≈ marks a conversion by molar mass, not a printed value.

Assays:
[1] = Solubility in aqueous formulations in comparison to other succinate prodrugs; type: physicochemical; conditions: pH 7.4, aqueous buffer, thermodynamic from solid; PBS pH7.4
Description: Solubility of Compound 1 in aqueous formulations in comparison to other succinate prodrugs was assessed by dissolving solid material in aqueous formulations and measuring the quantity in solution by HPLC (−MS). […] In many cases the max solubility of other prodrugs was lower than 100 uM. See Table 21 for example solubility data in PBS pH7.4 for other succinate prodrugs.

[2] = Caco-2 bioavailability in vitro assay (apparent permeability); type: in vitro ADME; conditions: human; Caco-2, apical to basolateral, 0.01 mM, pH 7.4, 1 h, 37° C.
Description: The cell penetrance and potential for oral bioavailability of Compound 1 was tested using a standard caco-2 bioavailability in vitro assay (in brief, confluent Caco-2 cells (L1, A. P., 1992; Grass, G. M; et al., 1992, Volpe, D. A., et al., 2001) in a 24 well Corning Costar Transwell format were provided by In Vitro Technologies Inc. (IVT Inc., Baltimore, Md., USA). The apical chamber contained 0.15 mL Hank's balanced buffer solution (HBBS) pH 7.4, 1% DMSO, 0.1 mM Lucifer Yellow. The basal chamber contained 0.6 mL HBBS pH 7.4, 1% DMSO. Controls and tests were incubated at 37° C. in a humidified incubator, shaken at 130 rpm for 1 h. Lucifer Yellow permeates via the paracellular (between the tight junctions) route only, a high Apparent Permeability (Papp) for Lucifer Yellow indicates cellular damage during assay and all such wells were rejected. Propranolol (good passive permeation with no known transporter effects) & acebutalol (poor passive permeation attenuated by active efflux by P-glycoprotein) were used as reference compounds. Compounds were tested in a uni- and bi-directional format by applying compound to the apical or basal chamber (at 0.01 mM). Compounds in the apical or basal chambers were analysed by HPLC-MS. Results were expressed as Apparent Permeability, Papp, (nm/s), in comparison to other succinate prodrugs, including a number from WO2015/155231.

[3] = Solubility of batches of different crystallinity; type: physicochemical
Description: Two batches of Compound 1 were generated with different crystallinity. Batch 2 had higher crystallinity than Batch 3, which is regarded as having a higher degree of amorphous Compound 1-Batch 2 is therefore regarded as a more crystalline batch, whereas Batch 3 is regarded as a more amorphous batch. The methods used are discussed in this document.
A sample of the more amorphous Compound 1 batch 3 was added to PBS or water to a final concentration of 258 mg/mL and sonicated for 10 minutes, then shaken for 30 minutes.
A sample of the more crystalline Compound 1 batch 2 was added to HPLC-grade water (Fisher) to a final concentration of 30 mg/mL and sonicated for 10 minutes, then shaken for 30 minutes.
A sample of the more crystalline Compound 1 batch 2 was added to HPLC-grade water (Fisher) to a final concentration of 52 mg/mL and sonicated for 20 minutes, then shaken for 1 hour.
A sample of the more crystalline Compound 1 batch 2 was added to HPLC-grade water (Fisher) to a final concentration of […] and sonicated for 20 minutes, then shaken for 1.5 hours.

[4] = Aqueous formulations of Compound 1 (water, PBS, saline), concentration by HPLC; type: physicochemical; conditions: for Calculated concentration by HPLC: 50% w/v in 100 mM PBS pH 7.4; for Calculated Conc.: tap water, target conc. 400 mg/ml; for 400 mg Compound in 0.7 ml Water, Measured Conc.: 400 mg in 0.7 ml
Description: Formulation Protocol • 1. Weigh out the required amount of Compound 1 then add the required amount of excipient (0.9% w/v saline, 100 mM PBS pH 7.4, water) to the solid Compound 1 to give the required mg/ml concentration of Compound 1. For example, for a 400 mg/ml formulation of Compound 1 in water, weigh out 400 mg of Compound 1 and add 0.7 ml of water. • 2. Sonicate the solution for 10 mins and then shake for 20 mins to ensure that Compound 1 is fully dissolved. • 3. The solution can be centrifuged (13000 rpm, 10 mins) to remove any particulates if required. • 4. The solution can be sterile filtered if required.
˜500 mg of compound was weighed into a vial, ˜500 μl 100 mM PBS pH 7.4 added and the vial was sonicated for 10 mins then shaken for 20 mins. A sample was then removed, diluted 1/2000 and the concentration calculated by HPLC analysis.
Compound 1 batch 3 was heated in an oven to 60° C. for 20 mins, at which point it became a translucent pale-yellow liquid. 100 mM PBS pH 7.4 (20% v/v) was added and the solution was mixed for 20 mins on a shaker. […] The solution was placed at 4° C. for 72 hours.
Method: • 1. Saline (0.9% w/v) was added to Compound 1 batch 11 in different amounts then sonicated for 10 mins—the samples remained slightly cloudy • 2. The samples were shaken for 30 mins at which point the solutions became translucent • 3. The solutions were diluted for HPLC analysis

[5] = Kinetic solubility (turbidity at 620 nm, dissolution rate constant); type: physicochemical; conditions: dissolution in PBS at 5° C., 460 mg/ml final concentration, 3 mins
Description: Solid Compound 1 Batches s3, s12-17 (˜80 mg) were added to wells of a flat clear bottom 96 well plate. PBS at 5° C. was added to give a 460 mg/ml final concentration of 01-354 for all batches. After addition of the PBS, the plate was agitated for 10 s then immediately analysed for turbidity at 620 nm in real time for 3 mins by an Epoch Microplate Spectrophotometer (BioTek). A rate constant for the dissolution was calculated from the exponential decay fit of the recorded data.

[6] = Stability in purified (HPLC grade) or non-purified (tap) water; type: physicochemical; conditions: 1 mg/ml, room temperature
Description: A side-by-side experiment of the stability of Compound 1 in ‘purified’ HPLC grade water (Fisher Scientific) and ‘non-purified’ tap water was set up. In brief, 1 mg/mL solutions of Compound 1 were generated in ‘purified’ HPLC grade water (Fisher Scientific) and ‘non-purified’ tap water. These were incubated at room temperature for up to 10 days. Concentration and purity of Compound 1 was assessed over time by HPLC in comparison to a standard (AUC of 8.21 RT peak at 230 nm for calculated concentration and AUC of Compound 1 peak vs impurities for purity analysis). Data presented is the average of two samples.

SMILES: CC(OC(=O)CCC(=O)O)OC(=O)CCC(=O)O [A, reference compound]
- solubility [1]: 52 µM (≈ 13.6 µg/mL)

SMILES: CCN(CC)C(=O)[C@H](CSC(=O)CCC(=O)OC(C)C)NC(C)=O [A]
- Papp A→B at 1 h, 0.01 mM [2]: 0.313 ×10⁻⁶ cm/s

SMILES: CCN(CC)C(=O)[C@H](CSC(=O)CCC(=O)OC)NC(C)=O [B]
- Papp A→B at 1 h, 0.01 mM [2]: 0.192 ×10⁻⁶ cm/s

SMILES: COC(=O)CCC(=O)SCCNC(C)=O [Batch 2, Methyl 3-[(2-acetylaminoethylthio)carbonyl]propionate]
- concentration reached ([3]; HPLC-grade water, added to 30 mg/mL, sonicated 10 minutes, shaken 30 minutes): 17000 µg/mL
- concentration reached ([3]; HPLC-grade water, added to 52 mg/mL, sonicated 20 minutes, shaken 1 hour): 52000 µg/mL
- concentration reached ([3]; HPLC-grade water, added to 2000 mg/mL, sonicated 20 minutes, shaken 1.5 hours): 850000 µg/mL
- solubility at 1.5 h ([3]; HPLC-grade water, water, thermodynamic from solid, more crystalline Compound 1, read-out: water solubility): ≥ 850 mg/mL

SMILES: COC(=O)CCC(=O)SCCNC(C)=O [Batch 3, Methyl 3-[(2-acetylaminoethylthio)carbonyl]propionate]
- solubility at 30 min ([3]; PBS or water, water, thermodynamic from solid, PBS or water, added to 258 mg/mL, sonicated 10 minutes, shaken 30 minutes, read-out: concentration reached): ≥ 258 mg/mL
- Calculated concentration by HPLC [4]: 535 mg/mL
- appearance of liquid formulation ([4]; batch 3 melted at 60° C., 100 mM PBS pH 7.4 (20% v/v) added, 72 hours at 4° C.): remained a translucent liquid
- Calculated Conc. [4]: 381 mg/mL
- 400 mg Compound in 0.7 ml Water, Measured Conc. [4]: 381 mg/mL
- Rate constants, k [5]: 0.014 s⁻¹
- Calculated Conc. ([6]; HPLC grade water, day 0): 1.02 mg/mL
- Purity ([6]; HPLC grade water, day 0): 99.0%
- Calculated Conc. ([6]; HPLC grade water, day 3): 1.04 mg/mL
- Purity ([6]; HPLC grade water, day 3): 98.8%
- Calculated Conc. ([6]; HPLC grade water, day 5): 1.03 mg/mL
- Purity ([6]; HPLC grade water, day 5): 99.0%
- Calculated Conc. ([6]; HPLC grade water, day 6): 1.01 mg/mL
- Purity ([6]; HPLC grade water, day 6): 99.0%
- Calculated Conc. ([6]; tap water, day 0): 1.06 mg/mL
- Purity ([6]; tap water, day 0): 98.5%
- Calculated Conc. ([6]; tap water, day 3): 0.98 mg/mL
- Purity ([6]; tap water, day 3): 95.7%
- Calculated Conc. ([6]; tap water, day 5): 0.93 mg/mL
- Purity ([6]; tap water, day 5): 94.4%
- Calculated Conc. ([6]; tap water, day 6): 0.89 mg/mL
- Purity ([6]; tap water, day 6): 93.3%
- Calculated Conc. ([6]; tap water, day 10): 0.83 mg/mL
- Purity ([6]; tap water, day 10): 93.0%

SMILES: COC(=O)CCC(=O)SCCNC(C)=O [Batch 4, Methyl 3-[(2-acetylaminoethylthio)carbonyl]propionate]
- Calculated concentration by HPLC [4]: 526 mg/mL

SMILES: COC(=O)CCC(=O)SCCNC(C)=O [Batch 5, Methyl 3-[(2-acetylaminoethylthio)carbonyl]propionate]
- Calculated concentration by HPLC [4]: 531 mg/mL

SMILES: COC(=O)CCC(=O)SCCNC(C)=O [Batch 6, Methyl 3-[(2-acetylaminoethylthio)carbonyl]propionate]
- Calculated concentration by HPLC [4]: 543 mg/mL

SMILES: COC(=O)CCC(=O)SCCNC(C)=O [Batch 12, Methyl 3-[(2-acetylaminoethylthio)carbonyl]propionate]
- Calculated Conc. [4]: 378 mg/mL
- 400 mg Compound in 0.7 ml Water, Measured Conc. [4]: 378 mg/mL
- Rate constants, k [5]: 0.022 s⁻¹

SMILES: COC(=O)CCC(=O)SCCNC(C)=O [Batch 13, Methyl 3-[(2-acetylaminoethylthio)carbonyl]propionate]
- Calculated Conc. [4]: 395 mg/mL
- 400 mg Compound in 0.7 ml Water, Measured Conc. [4]: 395 mg/mL
- Rate constants, k [5]: 0.013 s⁻¹

SMILES: COC(=O)CCC(=O)SCCNC(C)=O [Batch 14, Methyl 3-[(2-acetylaminoethylthio)carbonyl]propionate]
- Calculated Conc. [4]: 366 mg/mL
- 400 mg Compound in 0.7 ml Water, Measured Conc. [4]: 366 mg/mL
- Rate constants, k [5]: 0.011 s⁻¹

SMILES: COC(=O)CCC(=O)SCCNC(C)=O [Batch 15, Methyl 3-[(2-acetylaminoethylthio)carbonyl]propionate]
- 400 mg Compound in 0.7 ml Water, Measured Conc. [4]: 414 mg/mL
- Rate constants, k [5]: 0.074 s⁻¹

SMILES: COC(=O)CCC(=O)SCCNC(C)=O [Batch 16, Methyl 3-[(2-acetylaminoethylthio)carbonyl]propionate]
- 400 mg Compound in 0.7 ml Water, Measured Conc. [4]: 435 mg/mL
- Rate constants, k [5]: 0.055 s⁻¹

SMILES: COC(=O)CCC(=O)SCCNC(C)=O [Batch 17, Methyl 3-[(2-acetylaminoethylthio)carbonyl]propionate]
- Rate constants, k [5]: 0.111 s⁻¹

SMILES: CCOC(=O)CCC(=O)SCCNC(C)=O [C]
- Papp A→B at 1 h, 0.01 mM [2]: 0.128 ×10⁻⁶ cm/s

SMILES: CC(=O)NCC(C)SC(=O)CCC(=O)OC(C)C (stereo not shown) [D]
- Papp A→B at 1 h, 0.01 mM [2]: 0.142 ×10⁻⁶ cm/s

SMILES: CC(=O)NCCSC(=O)CCC(=O)OCC(C)(C)C [E]
- Papp A→B at 1 h, 0.01 mM [2]: < 0.021 ×10⁻⁶ cm/s

SMILES: COC(=O)CCC(=O)SC(C)CNC(C)=O (stereo not shown) [F]
- Papp A→B at 1 h, 0.01 mM [2]: 0.145 ×10⁻⁶ cm/s

SMILES: CCOC(=O)CCC(=O)SC(C)CNC(C)=O (stereo not shown) [G]
- Papp A→B at 1 h, 0.01 mM [2]: 0.087 ×10⁻⁶ cm/s

SMILES: O=C1CNC(=O)[C@H](CSC(=O)CCC(=O)SC[C@@H]2NC(=O)CNC2=O)N1 [HI]
- Papp A→B at 1 h, 0.01 mM [2]: 0.262 ×10⁻⁶ cm/s

SMILES: CC(=O)NCCSC(=O)CCC(=O)OC(C)C [J]
- Papp A→B at 1 h, 0.01 mM [2]: 0.135 ×10⁻⁶ cm/s

SMILES: CCOC(=O)CCC(=O)SC[C@H](NC(C)=O)C(=O)N(CC)CC [K]
- Papp A→B at 1 h, 0.01 mM [2]: 0.168 ×10⁻⁶ cm/s

SMILES: CC(=O)NCC(C)SC(=O)CCC(=O)OCC(C)(C)C (stereo not shown) [L]
- Papp A→B at 1 h, 0.01 mM [2]: 0.016 ×10⁻⁶ cm/s

SMILES: CCNC(=O)[C@H](CSC(=O)CCC(=O)SC[C@H](NC(=O)CC)C(=O)N(CC)CC)NC(=O)CC [M]
- Papp A→B at 1 h, 0.01 mM [2]: 0.097 ×10⁻⁶ cm/s
